The source of these data is patent publication US4906794A, “Lysosome liberation inhibitors and histamine release inhibitors” (Mitsubishi Kasei Corporation, priority 1986, dated 1990).

Experiment [1] has as its system mast cells. The settings on record: inhibitor of histamine release; cited from earlier work.
Experiment [2] relates to carrageenin-induced rat paw edema. The experiment in a line: rat carrageenin edema test (carrageenin-induced rat paw edema). The format is in vivo, Wistar male rat. The settings on record: 6 rats; for % Inhibition (edema), 2 Hours: 2 hours after carrageenin; for % Inhibition (edema), 3 Hours: 3 hours after carrageenin. The protocol: When […] of 1% (W/V) λ-carrageenin is subcutaneously injected into the left paw of a Wistar male rat of 120 to 150 g, edema is developed in the left paw with a severity peak at 3 to 4 hours after injection--rat carrageenin edema test. It has been known that this carrageenin-induced rat paw edema is an excellent experimental model for inflammation, where histamine is involved in the development of edema immediately after injection of carrageenin, and subsequently such chemical mediators as prostaglandins, leukotrienes, bradykinin and the like are also involved.
The effect of sarcophytol-A on edema was investigated employing this experimental model: sarcophytol-A was orally administered to rats one hour before injection of carrageenin and the volume of the thus induced edema in the rat paw was measured by a volumometer 2 or 3 hours after the injection of carrageenin.
Degrees of edematization are expressed in percentages of paw volume increases after induction with respect to the paw volumes before induction: namely,
% Edematization=(B-A)/A×100
wherein A is the paw volume before induction, and B after induction. Further, inhibiting rates (%) are calculated according to the following equation: […]
(The carrageenan paw model is a standard test of acute inflammation.)

Experiment [3] has as its system polymorphonuclear leukocytes. The experiment is described as follows: liberation of lysosomal enzymes (β-glucuronidase) from FMLP-stimulated polymorphonuclear leukocytes. The format is cell-based, male Wistar rat. The settings on record: for Liberation (%) of lysosomal enzymes: control (0.1% DMSO) 32.0. The protocol: When 20 ml of 1% casein is intraperitoneally injected to a rat, a large number of polymorphonuclear leukocytes appear in the peritoneal cavity in 5 hours after the injection. Using these polymorphonuclear leukocytes, it is possible to measure the activity of polymorphonuclear leukocytes in an in vitro system. Thus, polymorphonuclear leukocytes are added into a test tube together with a buffer, and cytochalasin B is then added. Five minutes later, a stimulant formyl-methionyl-leucyl-phenylalanine (FMLP) is added. Then, the polymorphonuclear leukocytes liberate lysosomal enzymes. Simultaneously, some active enzymes and leukotrienes are produced. See Wei Hsueh et al., Nature, 290(23), 710-713 (11981).
Thus, polymorphonuclear leukocytes (2×10^6) were collected from the peritoneal cavity of a male Wistar rat of 250 to 350 g in body weight which had been stimulated with casein, and incubated in Hepes buffer (pH 7.4) for 5 minutes. After 5 μg of cytochalasin B was added, the mixture was incubated for an additional one minute. To the mixture, there was added an amount of a drug to be tested and, after incubation for 5 minutes, FMLP (0.1 μM) as a stimulant was added. Five minutes later, 2 volumes of ice-cooled phosphate buffer was added to arrest the reaction. The cells were removed by centrifugation at 1,100 rpm for 5 minutes. The supernatant was assayed for β-glucuronidase activity as an index of lysosomal enzymes. Separately, the total β-glucuronidase activity contained in the polymorphonuclear leukocyte was measured. Thus, liberation rates of lysosomal enzymes were determined as percentages of […]. Inhibition rates were calculated in percentage according to the following equation:
% Inhibition=(1-T/C) ×100
wherein T and C represent the liberation rates (%) of lysosomes for the treated and control groups, respectively.

Experiment [4] has as its system mast cells. The experiment is described as follows: release of histamine from mast cells stimulated with compound 48/80. The settings on record: for Histamine Release: control (0.1% DMSO) 62.42. It is filed as cell-based, male Wistar rat. The method, then:
Such histamine release can also be caused by addition of a synthetic stimulant compound 48/80, ATP (adenosine triphosphate), to mast cells.
Thus, mast cells were collected from the peritoneal cavity of a male Wistar rat of 400 to 450 g in body weight according to conventional procedures. The mast cells (5×10^4) were incubated in Krebs-Ringer buffer (pH 7.4) containing an amount of sarcophytol-A for 10 minutes. The compound 48/80 (100 ng) was added as a stimulant. After incubation for further 10 minutes, cells were removed by centrifugation. Histamine in the supernatant was quantitatively measured according to Shore et al. method: J. Phar. Exp. Ther., 127, 182-186 (1959). Total histamine contained in the mast cells was also measured. Inhibition rates (%) are calculated according to the following equation: […]
wherein T and C represent the amount of histamine released from mast cells after the treatment with the drug, and the total amount contained in the mast cells, respectively.

In experiment [5] the test system is mast cells. The experiment in a line: release of histamine from mast cells stimulated with protein extracted from the cuticle of ascarids (IgE antigen). The format is cell-based, rat. The settings on record: preincubated before addition of protein extracted from the cuticle of ascarids.
The mark [6] stands for this setting: 33 mg/kg oral, 1 h before carrageenin.

For `O=C(O)c1cc(=O)c2c(OCC(O)COc3cccc4oc(C(=O)O)cc(=O)c34)cccc2o1` [cromoglycate], the “degranulation of mast cells (in words)” value in experiment [1] is “inhibits degranulation of mast cells”.
Turning to `COc1ccc2c(c1)c(CC(=O)O)c(C)n2C(=O)c1ccc(Cl)cc1` [Indomethacin, reference compound], in experiment [2] (10 mg/kg oral, **p<0.01 vs control), the “% Inhibition (edema), 2 Hours” value turned out to be 43.5 ± 3.5%. Further, the “% Inhibition (edema), 3 Hours” value in experiment [2] (10 mg/kg oral, ***p<0.001 vs control) turned out to be 43.7 ± 3.0%.
`C/C1=C\C=C(\C(C)C)[C@@H](O)C/C(C)=C/CC/C(C)=C/CC1` [Sarcophytol-A]: the “% Inhibition (edema), 2 Hours” value in experiment [2] (setting [6]) was -3.0 ± 6.5%; in experiment [2] (100 mg/kg oral, 1 h before carrageenin), 24.4 ± 7.8%. For the same molecule, the “% Inhibition (edema), 3 Hours” value in experiment [2] (setting [6]) was 2.4 ± 8.6%; in experiment [2] (100 mg/kg oral, 1 h before carrageenin, **p<0.01 vs control), 26.9 ± 6.9%. The “Liberation (%) of lysosomal enzymes” value turned out to be 29.4% in experiment [3] (4 μM, FMLP 0.1 μM); 27.2% in experiment [3] (11 μM, FMLP 0.1 μM); 26.0% in experiment [3] (33 μM, FMLP 0.1 μM); 13.1% in experiment [3] (100 μM, FMLP 0.1 μM). Also, the inhibition at 4 µM in experiment [3] (Rattus norvegicus, Leukocyte, 4 μM, FMLP 0.1 μM, read-out: Inhibition (%) of lysosome liberation) was 8.1%; in experiment [4] (Rattus norvegicus, Mast cell, 4 μM, compound 48/80 100 ng), -4.6%. Further, the inhibition at 11 µM in experiment [3] (Rattus norvegicus, Leukocyte, 11 μM, FMLP 0.1 μM, read-out: Inhibition (%) of lysosome liberation) is 15.1%; in experiment [4] (Rattus norvegicus, Mast cell, 11 μM, compound 48/80 100 ng), 4.3%. Moreover, the inhibition at 33 µM in experiment [3] (Rattus norvegicus, Leukocyte, 33 μM, FMLP 0.1 μM, read-out: Inhibition (%) of lysosome liberation) was found to be 18.8%; in experiment [4] (Rattus norvegicus, Mast cell, 33 μM, compound 48/80 100 ng) it was 10.7%. The inhibition at 100 µM was 59% in experiment [3] (Rattus norvegicus, Leukocyte, 100 μM, FMLP 0.1 μM, read-out: Inhibition (%) of lysosome liberation) and 33.6% in experiment [4] (Rattus norvegicus, Mast cell, 100 μM, compound 48/80 100 ng). Also, the “liberation of lysosomal enzymes (in words)” value in experiment [3] (preincubated before addition of the stimulant FMLP) is given as “positively inhibited”. Besides, the “Histamine Release” value turned out to be 65.32 Fluorescence Intensity in experiment [4] (4 μM, compound 48/80 100 ng); 59.72 Fluorescence Intensity in experiment [4] (11 μM, compound 48/80 100 ng); 55.72 Fluorescence Intensity in experiment [4] (33 μM, compound 48/80 100 ng); 41.45 Fluorescence Intensity in experiment [4] (100 μM, compound 48/80 100 ng). For the same molecule, the “release of histamine (in words)” value in experiment [4] (preincubated before addition of stimulant compound 48/80) and in experiment [5] was “positively inhibited” in each case.
